Reference: ChEMBL document CHEMBL1146886, “Antibacterial activity of pyrrolopyridine-substituted oxazolidinones: synthesis and in vitro SAR of various C-5 acetamide replacements” (2006)
In brackets after ≈: the same amount, converted by molar mass.

Assays:
Format in all cases: functional
Staphylococcus aureus [1] = test: Antibacterial activity against gram positive Staphylococcus aureus Smith OC 4172 in presence of 50% mouse serum
Enterococcus faecalis = test: Antibacterial activity against gram positive vancomycin-susceptible Enterococcus faecalis ATCC 29212
Staphylococcus aureus [2] = test: Antibacterial activity against gram positive methicillin-resistant Staphylococcus aureus OC 2878
Enterococcus faecium = test: Antibacterial activity against gram positive vancomycin-resistant Enterococcus faecium OC 3312
Staphylococcus aureus [3] = test: Antibacterial activity against gram positive methicillin-susceptible Staphylococcus aureus Smith OC 4172 by broth microdilution assay

SMILES	MIC (Staphylococcus aureus [1])	MIC (Enterococcus faecalis)	MIC (Staphylococcus aureus [2])	MIC (Enterococcus faecium)	MIC (Staphylococcus aureus [3])
CC(=O)NC[C@H]1CN(c2ccc(-n3cc4cccnc4c3)c(F)c2)C(=O)O1	2 µg/mL	1 µg/mL (≈ 2.71 µM)	0.5 µg/mL (≈ 1.36 µM)	1 µg/mL (≈ 2.71 µM)	1 µg/mL (≈ 2.71 µM)
CS/C(=N/C#N)NC[C@H]1CN(c2ccc(-n3cc4cccnc4c3)c(F)c2)C(=O)O1	64 µg/mL	8 µg/mL (≈ 18.8 µM)	8 µg/mL (≈ 18.8 µM)	8 µg/mL (≈ 18.8 µM)	8 µg/mL (≈ 18.8 µM)
O=C1O[C@@H](COc2cnccn2)CN1c1ccc(-n2cc3cccnc3c2)c(F)c1	> 32 µg/mL	64 µg/mL (≈ 158 µM)	8 µg/mL (≈ 19.7 µM)	64 µg/mL (≈ 158 µM)	> 32 µg/mL
O=C1O[C@@H](COc2ccon2)CN1c1ccc(-n2cc3cccnc3c2)c(F)c1	64 µg/mL	16 µg/mL (≈ 40.6 µM)	4 µg/mL (≈ 10.1 µM)	8 µg/mL (≈ 20.3 µM)	8 µg/mL (≈ 20.3 µM)
O=C1O[C@@H](COc2cnsn2)CN1c1ccc(-n2cc3cccnc3c2)c(F)c1	16 µg/mL	4 µg/mL (≈ 9.72 µM)	2 µg/mL (≈ 4.86 µM)	4 µg/mL (≈ 9.72 µM)	8 µg/mL (≈ 19.4 µM)
COC(=O)NC[C@H]1CN(c2ccc(N3Cc4cccnc4C3)c(F)c2)C(=O)O1	16 µg/mL	4 µg/mL (≈ 10.4 µM)	2 µg/mL (≈ 5.18 µM)	2 µg/mL (≈ 5.18 µM)	4 µg/mL (≈ 10.4 µM)
O=C1O[C@@H](COc2ccccn2)CN1c1ccc(N2Cc3cccnc3C2)c(F)c1	> 128 µg/mL	> 64 µg/mL	32 µg/mL (≈ 78.7 µM)	> 64 µg/mL	> 128 µg/mL
COC(=O)NC[C@H]1CN(c2ccc(-n3cc4cccnc4c3)c(F)c2)C(=O)O1	32 µg/mL	16 µg/mL (≈ 41.6 µM)	16 µg/mL (≈ 41.6 µM)	16 µg/mL (≈ 41.6 µM)	16 µg/mL (≈ 41.6 µM)
CS(=O)(=O)NC[C@H]1CN(c2ccc(N3Cc4cccnc4C3)c(F)c2)C(=O)O1	16 µg/mL	8 µg/mL (≈ 19.7 µM)	2 µg/mL (≈ 4.92 µM)	4 µg/mL (≈ 9.84 µM)	4 µg/mL (≈ 9.84 µM)
O=C1O[C@@H](COc2ccon2)CN1c1ccc(N2Cc3cccnc3C2)c(F)c1	> 64 µg/mL	> 32 µg/mL	8 µg/mL (≈ 20.2 µM)	16 µg/mL (≈ 40.4 µM)	> 32 µg/mL
N#Cc1ccc(OC[C@H]2CN(c3ccc(-n4cc5cccnc5c4)c(F)c3)C(=O)O2)nc1	> 128 µg/mL	> 32 µg/mL	> 64 µg/mL	> 64 µg/mL	> 128 µg/mL
Cc1cccc(OC[C@H]2CN(c3ccc(N4Cc5cccnc5C4)c(F)c3)C(=O)O2)n1	> 128 µg/mL	> 32 µg/mL	> 128 µg/mL	> 64 µg/mL	> 128 µg/mL
O=C1O[C@@H](C/N=C/NN[N+](=O)[O-])CN1c1ccc(N2Cc3cccnc3C2)c(F)c1	16 µg/mL	16 µg/mL (≈ 38.5 µM)	8 µg/mL (≈ 19.3 µM)	8 µg/mL (≈ 19.3 µM)	8 µg/mL (≈ 19.3 µM)
O=C(NC[C@H]1CN(c2ccc(N3Cc4cccnc4C3)c(F)c2)C(=O)O1)C1CCC1	32 µg/mL	8 µg/mL (≈ 19.5 µM)	4 µg/mL (≈ 9.75 µM)	8 µg/mL (≈ 19.5 µM)	8 µg/mL (≈ 19.5 µM)
C/C(=N\C#N)NC[C@H]1CN(c2ccc(N3Cc4cccnc4C3)c(F)c2)C(=O)O1	8 µg/mL	4 µg/mL (≈ 10.1 µM)	2 µg/mL (≈ 5.07 µM)	4 µg/mL (≈ 10.1 µM)	2 µg/mL (≈ 5.07 µM)
O=C(CO)NC[C@H]1CN(c2ccc(N3Cc4cccnc4C3)c(F)c2)C(=O)O1	32 µg/mL	32 µg/mL (≈ 82.8 µM)	16 µg/mL (≈ 41.4 µM)	16 µg/mL (≈ 41.4 µM)	32 µg/mL (≈ 82.8 µM)
CCC(=O)NC[C@H]1CN(c2ccc(-n3cc4cccnc4c3)c(F)c2)C(=O)O1	32 µg/mL	16 µg/mL (≈ 41.8 µM)	16 µg/mL (≈ 41.8 µM)	16 µg/mL (≈ 41.8 µM)	32 µg/mL (≈ 83.7 µM)

SMILES	MIC (Staphylococcus aureus [1])	MIC (Enterococcus faecalis)	MIC (Staphylococcus aureus [2])	MIC (Enterococcus faecium)	MIC (Staphylococcus aureus [3])
O=C1O[C@@H](Cn2ccccc2=O)CN1c1ccc(N2Cc3cccnc3C2)c(F)c1	64 µg/mL	> 32 µg/mL	16 µg/mL (≈ 39.4 µM)	> 32 µg/mL	> 32 µg/mL
CCC(=O)NC[C@H]1CN(c2ccc(N3Cc4cccnc4C3)c(F)c2)C(=O)O1	4 µg/mL	2 µg/mL (≈ 5.2 µM)	1 µg/mL (≈ 2.6 µM)	2 µg/mL (≈ 5.2 µM)	2 µg/mL (≈ 5.2 µM)
O=C(NC[C@H]1CN(c2ccc(N3Cc4cccnc4C3)c(F)c2)C(=O)O1)C1CC1	4 µg/mL	2 µg/mL (≈ 5.05 µM)	2 µg/mL (≈ 5.05 µM)	2 µg/mL (≈ 5.05 µM)	2 µg/mL (≈ 5.05 µM)
CC(=O)OCC(=O)NC[C@H]1CN(c2ccc(N3Cc4cccnc4C3)c(F)c2)C(=O)O1	32 µg/mL	16 µg/mL (≈ 37.3 µM)	128 µg/mL (≈ 299 µM)	16 µg/mL (≈ 37.3 µM)	32 µg/mL (≈ 74.7 µM)
CCOC(=O)NC[C@H]1CN(c2ccc(N3Cc4cccnc4C3)c(F)c2)C(=O)O1	64 µg/mL	8 µg/mL (≈ 20 µM)	4 µg/mL (≈ 9.99 µM)	8 µg/mL (≈ 20 µM)	8 µg/mL (≈ 20 µM)
O=C1O[C@@H](COc2cnccn2)CN1c1ccc(N2Cc3cccnc3C2)c(F)c1	> 32 µg/mL	> 32 µg/mL	> 32 µg/mL	> 32 µg/mL	> 32 µg/mL
O=C1O[C@@H](Cn2ccccc2=O)CN1c1ccc(-n2cc3cccnc3c2)c(F)c1	> 128 µg/mL	> 128 µg/mL	> 128 µg/mL	> 128 µg/mL	> 128 µg/mL
CS(=O)(=O)NC[C@H]1CN(c2ccc(-n3cc4cccnc4c3)c(F)c2)C(=O)O1	> 64 µg/mL	> 64 µg/mL	> 64 µg/mL	> 64 µg/mL	> 64 µg/mL
O=C(NC[C@H]1CN(c2ccc(-n3cc4cccnc4c3)c(F)c2)C(=O)O1)C1CC1	16 µg/mL	16 µg/mL (≈ 40.6 µM)	8 µg/mL (≈ 20.3 µM)	8 µg/mL (≈ 20.3 µM)	8 µg/mL (≈ 20.3 µM)
O=C1O[C@@H](COc2cnsn2)CN1c1ccc(N2Cc3cccnc3C2)c(F)c1	8 µg/mL	8 µg/mL (≈ 19.4 µM)	1 µg/mL (≈ 2.42 µM)	2 µg/mL (≈ 4.84 µM)	2 µg/mL (≈ 4.84 µM)
CS/C(=N\C#N)NC[C@H]1CN(c2ccc(N3Cc4cccnc4C3)c(F)c2)C(=O)O1	8 µg/mL	4 µg/mL (≈ 9.38 µM)	2 µg/mL (≈ 4.69 µM)	2 µg/mL (≈ 4.69 µM)	2 µg/mL (≈ 4.69 µM)
N#Cc1ccc(OC[C@H]2CN(c3ccc(N4Cc5cccnc5C4)c(F)c3)C(=O)O2)nc1	> 64 µg/mL	> 16 µg/mL	> 64 µg/mL	> 64 µg/mL	> 64 µg/mL
O=C1O[C@@H](C/N=C/NN[N+](=O)[O-])CN1c1ccc(-n2cc3cccnc3c2)c(F)c1	128 µg/mL	32 µg/mL (≈ 77.4 µM)	> 128 µg/mL	32 µg/mL (≈ 77.4 µM)	64 µg/mL (≈ 155 µM)
Cc1cccc(OC[C@H]2CN(c3ccc(-n4cc5cccnc5c4)c(F)c3)C(=O)O2)n1	> 128 µg/mL	> 64 µg/mL	> 64 µg/mL	> 128 µg/mL	> 128 µg/mL
CC(=O)NC[C@H]1CN(c2ccc(N3Cc4cccnc4C3)c(F)c2)C(=O)O1	1 µg/mL	0.5 µg/mL (≈ 1.35 µM)	0.25 µg/mL (≈ 0.675 µM)	0.5 µg/mL (≈ 1.35 µM)	0.5 µg/mL (≈ 1.35 µM)
CC(=O)NC[C@H]1CN(c2ccc(N3CCOCC3)c(F)c2)C(=O)O1 [LINEZOLID]	–	–	1 µg/mL (≈ 2.96 µM)	2 µg/mL (≈ 5.93 µM)	–
